Experiment: AO-CAF complex, spectrofluorometry λex 485 nm / λem 530 nm
Type: binding
Conditions: AO [2 μM], CAF [1-20 μM]
Method: Spectrofluorometric analysis was performed at an AO concentration of 2 μM to determine the effect of CAF and a physiological concentration of NaCl on the fluorescence spectra of AO. CAF was added over a series of CAF:AO molecular ratios ranging from 2500:1 to 0.5:1 and the fluorescence intensity determined at λem 530 nm and 635 nm. The fluorescence intensity was again determined following the addition of NaCl to a final concentration 150 mM and pH 7.0 to each test well containing both AO and CAF.
The data in FIG. 3-5A depicts the mean fluorescence values at λem 530 nm of 2 μM AO with CAF in the absence of, and in the presence of, 150 mM NaCl over a range of CAF to AO molecular ratios from 0.5 to 10.0 (1 μM to 20 μM CAF). The example shown in FIG. 3-5A is a plot of fluorescence intensity of AO excited at λex 485 nm and monitored at λem 530 nm versus CAF concentration to show the effect of CAF and NaCl on the fluorescence of AO and the formation of the AO-CAF complex. Solutions of 2 μM AO were analyzed using spectrofluorometric techniques in the presence of various concentrations of CAF with and without addition of NaCl [150 mM]. […] However at the CAF concentration of 5 mM (molecular ratio 2,500:1) there was a significant change in the mean fluorescence intensity with the value going from 1,245±53 for CAF and AO alone to 1,150±34 with the addition of 150 mM NaCl. […]

Cn1c(=O)c2c(ncn2C)n(C)c1=O [1,3,7-trimethyl xanthine (caffeine), 1,3,7-trimethyl xanthine]
K ± S.D. (Fluorescence plus NaCl 150 mM): 216 ± 20 M⁻¹
K ± S.D. (Fluorescence, absence of NaCl): 254 ± 27 M⁻¹
